Test results published in publication PMC8388802, “Study on the Structure-Activity Relationship of an Antimicrobial Peptide, Brevinin-2GUb, from the Skin Secretion of Hylarana guentheri” (Antibiotics, 2021).
Values after ≈ are worked out from the molar mass of the structure shown. Where a SMILES comes first, the peptide text is derived from it.

Legend:
[1] = system: MRSA (NCTC 12493) biofilm; assay type: cell-based, Methicillin-resistant Staphylococcus aureus; conditions: NCTC 12493, 24 h
Experimental: The anti-biofilm activities of the peptides against S. aureus (ATCC 6538), MRSA (NCTC 12493), E. faecalis (NCTC 12493), E. coli (ATCC CRM 8739), K. pneumoniae (ATCC 43816), and P. aeruginosa (ATCC CRM 9027) were evaluated.
The bacteria were inoculated in a different medium (Gram-positive bacteria were in TSB and Gram-negative bacteria were in LB) overnight, and the subculture was conducted in the same medium. When the bacteria reached a specific density, 100 µL of the dilution was added to each well of the 96-well microplate. Then 1 µL of peptide at a series of concentrations, the same concentration in the antimicrobial assay, were added into the well together with the bacteria. The plates were put into a moist shaking incubator with a speed of 200 rpm, and the temperature was set at 37 ℃. After a 24-h incubation, the liquid in the wells was aspirated, and each was washed twice by 100 µL PBS. One hundred µL of methanol were added into each well to stabilise the biofilm. After air-drying, 100 µL crystal violet was used to dye the biofilm, and they were dissolved in the 100 µL glacial acidic acid after drying. The solutions were transferred to a new microplate, and the absorbance of each well was tested by a microplate reader (EL808, Biolise BioTek Winooski, Minneapolis, MN, USA) at 595 nm wavelength. MBIC was the minimum concentration of the peptide showing no biofilm formation.
The bacteria were inoculated in a different medium (Gram-positive bacteria were in TSB and Gram-negative bacteria were in LB) overnight, and the subculture was conducted in the same medium. When the bacteria reached a specific density, 100 µL of the dilution was added to each well of the 96-well microplates. The plates were put into a moist shaking incubator with a speed of 200 rpm and the temperature was 37 ℃. […] The solutions were transferred to a new microplate, and the absorbance of each well was tested by a microplate reader (EL808, Biolise BioTek Winooski, Minneapolis, USA) at 595 nm wavelength.

E. coli (ATCC BAA-2340) = assay type: cell-based, Escherichia coli
Summary of the method: (§1)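 CLSI broth microdilution in Mueller Hinton Broth, with log-phase bacteria diluted to 5 × 10^5 CFU/mL and peptides added from a two-fold DMSO series (512 µM to 1 µM, as dosed; 1% DMSO in well). After overnight growth at 37 °C, absorbance at 550 nm gave the MIC as the lowest concentration showing no growth.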

S. aureus (ATCC 6538) = assay type: cell-based, Staphylococcus aureus
Experimental: The method of antimicrobial assay is based on the Methods for Dilution Antimicrobial Susceptibility Tests for Bacteria that Grow Aerobically from the Clinical and Laboratory Standards Institute (CLSI).The antimicrobial activities of peptides were evaluated against Gram-positive bacteria S. aureus (ATCC 6538), MRSA (NCTC 12493), E. faecalis (NCTC 12493), Gram-negative bacteria E. coli (ATCC CRM 8739), K. pneumoniae (ATCC 43816), P. aeruginosa (ATCC CRM 9027), yeast C. albicans (ATCC CRM 10231) and clinical isolates MRSA (B042 V2E1 A), E. coli (ATCC BAA-2340), K. pneumoniae (ATCC BAA-1705), P. aeruginosa (B004 V2S2 B).
At the first stage of the assay, 20 μL bacteria were cultured in 100 mL Mueller Hinton Broth (MHB) or Yeast Extract–Peptone–Dextrose broth (YPD-B), respectively, and was incubated overnight. Then, microorganisms were subcultured in 20 mL fresh MHB or YPD-B to achieve cultures in the logarithmic phase (1 × 10^8 CFU/mL), which can be verified by optical density (OD) (The OD of Gram-positive bacteria is 0.23, OD of Gram-negative bacteria is 0.4, and OD of yeast is 0.15), and viable cell counts. Then, the medium was used to dilute the cultures to specific cell densities (Gram-negative and Gram-positive bacteria: 5 × 10^5 CFU/mL; yeast: 1 × 10^6 CFU/mL), which were the final concentrations of bacterial suspensions used in the assay. The peptides were dissolved in DMSO to reach a final concentration of 512 µM. A series of two-fold dilutions ranging from 512 µM to 1 µM were dosed in the 96-well plates.
Antimicrobial assays were conducted in 96-well plates, which were divided into five groups, including a negative control group (PBS), a positive control group (20 μg/mL norfloxacin for bacteria and 10 μg/mL amphotericin B for yeast), vehicle control (1% DMSO), blank control (MHB or YPD-B), and a peptide group. Each microorganism had five repetitions, and each well contained 1 µL corresponding solution and 99 µL culture. After incubation at 37 °C overnight, the absorbance of each well was tested by a microplate reader (EL808, Biolise BioTek Winooski, Minneapolis, USA) under a 550 nm wavelength. The MIC is the lowest concentration at which no bacterial growth can be observed.
The next day, 10 µL of every clear well was taken out to be cultured on a Mueller Hinton Agar (MHA) plate and incubated at 37 °C for 16–20 h. The MBC is the lowest concentration without any bacterial colonies, which means at this concentration, the peptide reduces the viability of the pathogen by more than 99.9%.

[2] = system: wax moth (Galleria mellonella); assay: Toxicity of peptides to waxworms; assay type: in vivo; conditions: uninfected waxworms, 7.5, 15 and 30 mg/kg, injection
MRSA (NCTC 12493) = assay type: cell-based, Methicillin-resistant Staphylococcus aureus
Summary of the method: as §1

MIC (E. coli (ATCC BAA-2340)) [µM] | MIC (S. aureus (ATCC 6538)) [µM] | MIC (MRSA (NCTC 12493)) [µM] | SMILES | MBIC [1] [µM] | MBC (E. coli (ATCC BAA-2340)) [µM] | MBC (S. aureus (ATCC 6538)) [µM] | survival rate of waxworms treated with peptide [2] [%] | MBC (MRSA (NCTC 12493)) [µM]
8 (≈ 15.6 µg/mL) | 32 (≈ 62.4 µg/mL) | 64 (≈ 125 µg/mL) | CC[C@H](C)[C@H](NC(=O)[C@@H](NC(=O)CN)C(C)C)C(=O)N[C@H](C(=O)N[C@@H](CCCCN)C(=O)N[C@@H](CCCCN)C(=O)N[C@@H](CC(C)C)C(=O)N[C@@H](CCCCN)C(=O)NCC(=O)N[C@@H](C)C(=O)N[C@@H](C)C(=O)N[C@@H](CCCCN)C(=O)N[C@@H](CCCCN)C(=O)N[C@H](C(=O)N[C@@H](C)C(=O)N[C@@H](C)C(=O)N[C@@H](CCCCN)C(=O)N[C@@H](CC(C)C)C(=O)N[C@@H](CC(C)C)C(N)=O)C(C)C)[C@@H](C)CC [tB2U-6K] (H-GVIIKKLKGAAKKVAAKLL-NH2) | 32 | 8 (≈ 15.6 µg/mL) | 32 (≈ 62.4 µg/mL) | 100 | 128 (≈ 249 µg/mL)
>512 | 512 (≈ 380 µg/mL) | 256 (≈ 190 µg/mL) | CC[C@H](C)[C@H](NC(=O)[C@@H](NC(=O)CN)C(C)C)C(=O)N[C@H](C(=O)N[C@@H](CCCCN)C(=O)N[C@H](C(=O)N[C@@H](CC(C)C)C(N)=O)[C@@H](C)O)[C@@H](C)CC [Peptide 7-tB2U-K] (H-GVIIKTL-NH2) |  | >512 | > 512 |  | > 512
16 (≈ 30.3 µg/mL) | 32 (≈ 60.6 µg/mL) | 128 (≈ 242 µg/mL) | CC[C@H](C)[C@H](NC(=O)[C@@H](NC(=O)CN)C(C)C)C(=O)N[C@H](C(=O)N[C@@H](CCCCN)C(=O)N[C@H](C(=O)N[C@@H](CC(C)C)C(=O)N[C@@H](CCCCN)C(=O)NCC(=O)N[C@@H](C)C(=O)N[C@@H](C)C(=O)N[C@@H](CCCCN)C(=O)N[C@H](C(=O)N[C@H](C(=O)N[C@@H](C)C(=O)N[C@@H](C)C(=O)N[C@@H](CCCCN)C(=O)N[C@@H](CC(C)C)C(=O)N[C@@H](CC(C)C)C(N)=O)C(C)C)[C@@H](C)O)[C@@H](C)O)[C@@H](C)CC [tB2U-K] (H-GVIIKTLKGAAKTVAAKLL-NH2) | 16 | 16 (≈ 30.3 µg/mL) | 32 (≈ 60.6 µg/mL) | 100 | 128 (≈ 242 µg/mL)
>512 | >512 | >512 | CC[C@H](C)[C@H](NC(=O)[C@@H](NC(=O)CN)C(C)C)C(=O)N[C@H](C(=O)N[C@@H](CC(=O)O)C(=O)N[C@H](C(=O)N[C@@H](CC(C)C)C(=O)N[C@@H](CCCCN)C(=O)NCC(=O)N[C@@H](C)C(=O)N[C@@H](C)C(=O)N[C@@H](CCCCN)C(=O)N[C@H](C(=O)N[C@H](C(=O)N[C@@H](C)C(=O)N[C@@H](C)C(=O)N[C@@H](CCC(=O)O)C(=O)N[C@@H](CC(C)C)C(=O)N[C@@H](CC(C)C)C(N)=O)C(C)C)[C@@H](C)O)[C@@H](C)O)[C@@H](C)CC [tB2U-α] (H-GVIIDTLKGAAKTVAAELL-NH2) |  | >512 | >512 |  | >512
 | 256 (≈ 608 µg/mL) | >512 | CC[C@H](C)[C@H](NC(=O)[C@@H](NC(=O)CN)C(C)C)C(=O)N[C@H](C(=O)N[C@@H](CC(=O)O)C(=O)N[C@H](C(=O)N[C@@H](CC(C)C)C(=O)N[C@@H](CCCCN)C(=O)NCC(=O)N[C@@H](C)C(=O)N[C@@H](C)C(=O)N[C@@H](CCCCN)C(=O)N[C@H](C(=O)N[C@H](C(=O)N[C@@H](C)C(=O)N[C@@H](C)C(=O)N[C@@H](CCC(=O)O)C(=O)N[C@@H](CC(C)C)C(=O)N[C@@H](CC(C)C)C(=O)N[C@@H](CCCNC(=N)N)C(=O)N[C@@H](CCCCN)C(=O)N[C@@H](C)C(=O)N[C@@H](Cc1c[nH]cn1)C(N)=O)C(C)C)[C@@H](C)O)[C@@H](C)O)[C@@H](C)CC [tB2U] (H-GVIIDTLKGAAKTVAAELLRKAH-NH2) |  |  | > 512 |  | >512
>512 | 256 (≈ 358 µg/mL) | >512 | CC[C@H](C)[C@H](NC(=O)[C@@H](NC(=O)CN)C(C)C)C(=O)N[C@H](C(=O)N[C@@H](CCCCN)C(=O)N[C@H](C(=O)N[C@@H](CC(C)C)C(=O)N[C@@H](CCCCN)C(=O)NCC(=O)N[C@@H](C)C(=O)N[C@@H](C)C(=O)N[C@@H](CCCCN)C(=O)N[C@H](C(=O)N[C@H](C(N)=O)C(C)C)[C@@H](C)O)[C@@H](C)O)[C@@H](C)CC [Peptide 14-tB2U-K] (H-GVIIKTLKGAAKTV-NH2) |  | >512 | > 512 |  | >512
